Tests used:
[1] = tested on: HCV replicon RNA (GenBank Accession No. AJ242654); test: HCV Replicon Assay (replicon RNA reduction and/or Fluc reporter signal); format: cell-based, Hepatitis C virus; conditions: Hepatitis C virus, 72 h, replicon-containing cells cultured with test compound for up to 3 days
In short: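 IC50 values mostly reflect the drop in replicon RNA, though Fluc reporter signal may also be used. Compound incubated with cells carrying the bicistronic replicon for as long as 3 days; interferon served as positive control.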

`CCc1cnc2c(c1)c(C#N)c(-c1ccc(S(=O)(=O)N[C@@H](C)C(F)(F)F)cn1)n2-c1ccccn1` [Cpd 414, 6-[3-cyano-5-ethyl-1-(pyridin-2-yl)-1H-pyrrolo[2,3-b]pyridin-2-yl]-N-[(2S)-1,1,1-trifluoropropan-2-yl]pyridine-3-sulfonamide] showed a melting point of 190 to 195 °C and an IC50 [1] of less than 500 nM.
Molecule `C[C@H](NS(=O)(=O)c1ccc(-c2c(C#N)c3cc(C(F)(F)F)cnc3n2C2CCCCC2)nc1)C(F)(F)F` [Cpd 415, 6-[3-cyano-1-cyclohexyl-5-(trifluoromethyl)-1H-pyrrolo[2,3-b]pyridin-2-yl]-N-[(2S)-1,1,1-trifluoropropan-2-yl]pyridine-3-sulfonamide] has a melting point of 204 to 206 °C and an IC50 [1] of less than 500 nM.
`C[C@H](NS(=O)(=O)c1ccc(-c2c(C#N)c3cc(C(F)(F)F)cnc3n2C2CCCCC2)cc1)C(F)(F)F` [Cpd 416, 4-[3-cyano-1-cyclohexyl-5-(trifluoromethyl)-1H-pyrrolo[2,3-b]pyridin-2-yl]-N-[(2S)-1,1,1-trifluoropropan-2-yl]benzenesulfonamide] showed a melting point of 190 to 192 °C and an IC50 [1] of less than 500 nM.
`CC(C)(NS(=O)(=O)c1ccc(-c2c(C#N)c3cc(C(F)(F)F)cnc3n2C2CCCCC2)nc1)C(F)(F)F` [Cpd 417, 6-[3-cyano-1-cyclohexyl-5-(trifluoromethyl)-1H-pyrrolo[2,3-b]pyridin-2-yl]-N-(1,1,1-trifluoro-2-methylpropan-2-yl)pyridine-3-sulfonamide] gave a melting point of 177 to 179 °C and an IC50 [1] of less than 500 nM.
`CC(C)(NS(=O)(=O)c1ccc(-c2c(C#N)c3cc(C(F)(F)F)cnc3n2C2CCCCC2)cc1)C(F)(F)F` [Cpd 418, 4-[3-cyano-1-cyclohexyl-5-(trifluoromethyl)-1H-pyrrolo[2,3-b]pyridin-2-yl]-N-(1,1,1-trifluoro-2-methylpropan-2-yl)benzenesulfonamide] gave a melting point of 203 to 205 °C and an IC50 [1] of less than 500 nM.
Molecule `N#Cc1c(-c2ccc(S(=O)(=O)NC3(C(F)(F)F)CC3)cn2)n(C2CCCCC2)c2ncc(C(F)(F)F)cc12` [Cpd 419, 6-[3-cyano-1-cyclohexyl-5-(trifluoromethyl)-1H-pyrrolo[2,3-b]pyridin-2-yl]-N-[1-(trifluoromethyl)cyclopropyl]pyridine-3-sulfonamide] has a melting point of 192 to 193 °C and an IC50 [1] of less than 500 nM.
Work on `N#Cc1c(-c2ccc(S(=O)(=O)NC3(C(F)(F)F)CC3)cc2)n(C2CCCCC2)c2ncc(C(F)(F)F)cc12` [Cpd 420, 4-[3-cyano-1-cyclohexyl-5-(trifluoromethyl)-1H-pyrrolo[2,3-b]pyridin-2-yl]-N-[1-(trifluoromethyl)cyclopropyl]benzenesulfonamide] yielded a melting point of 195 to 197 °C and an IC50 [1] of less than 500 nM.
Molecule `CC1(NS(=O)(=O)c2ccc(-c3c(C#N)c4cc(C(F)(F)F)cnc4n3C3CCCCC3)cc2)CC1` [Cpd 421, 4-[3-cyano-1-cyclohexyl-5-(trifluoromethyl)-1H-pyrrolo[2,3-b]pyridin-2-yl]-N-(1-methylcyclopropyl)benzenesulfonamide] has a melting point of 173 to 175 °C and an IC50 [1] of less than 500 nM.
With `CC(C)(C)NS(=O)(=O)c1ccc(-c2c(C#N)c3cc(C(F)(F)F)cnc3n2C2CCCCC2)cc1` [Cpd 422, N-tert-butyl-4-[3-cyano-1-cyclohexyl-5-(trifluoromethyl)-1H-pyrrolo[2,3-b]pyridin-2-yl]benzenesulfonamide] the melting point was 176 to 178 °C and the IC50 [1] was less than 500 nM.
With `C[C@@H](NS(=O)(=O)c1ccc(-c2c(C#N)c3cc(C(F)(F)F)cnc3n2C2CCCCC2)cc1)C(F)(F)F` [Cpd 423, 4-[3-cyano-1-cyclohexyl-5-(trifluoromethyl)-1H-pyrrolo[2,3-b]pyridin-2-yl]-N-[(2R)-1,1,1-trifluoropropan-2-yl]benzenesulfonamide] the melting point was 185 to 187 °C and the IC50 [1] was less than 500 nM.
